According to publication PMC7695835, “Pharmacological characterisation of novel adenosine A3 receptor antagonists” (Scientific Reports, 2020):

Tests used:
A3R [1] = molecular target: T1, A3R (Homo sapiens, UniProt P0DMS8); settings: 1 nM [3H]HEMADO; ref Lagarias et al.[19]; read-out: Radioligand binding Ki A3R; cited from earlier work
T1 sequence (P0DMS8 1-318): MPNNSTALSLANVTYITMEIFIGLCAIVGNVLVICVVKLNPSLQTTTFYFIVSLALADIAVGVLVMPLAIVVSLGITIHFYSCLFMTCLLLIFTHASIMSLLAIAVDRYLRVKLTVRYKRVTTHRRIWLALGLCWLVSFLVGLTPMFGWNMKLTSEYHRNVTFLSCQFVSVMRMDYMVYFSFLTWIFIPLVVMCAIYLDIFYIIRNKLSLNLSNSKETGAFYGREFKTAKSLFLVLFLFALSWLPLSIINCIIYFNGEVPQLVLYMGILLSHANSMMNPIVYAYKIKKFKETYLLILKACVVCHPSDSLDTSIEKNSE

A3R [2] = molecular target: T1, A3R; settings: for cAMP accumulation Mean: 10 μM forskolin + NECA IC80 (3.16 nM) + 1 μM compound, mean ± SEM, n = 3; for cAMP accumulation Mean difference between 'NECA' and compound: 10 μM forskolin + NECA IC80 + 1 μM compound; for outcome of cAMP-based screen: 1 μM compound
A2AR = molecular target: T2, A2AR (Homo sapiens, UniProt P29274); parameters: method as in Lagarias et al.[19]; settings: 10 nM [3H]NECA; ref Lagarias et al.[19]; read-out: Radioligand binding Ki A2AR; cited from earlier work
T2 construct: expressed in transfected cells; host or cells: CHO cells, membrane preparation
T2 sequence (P29274 whole entry): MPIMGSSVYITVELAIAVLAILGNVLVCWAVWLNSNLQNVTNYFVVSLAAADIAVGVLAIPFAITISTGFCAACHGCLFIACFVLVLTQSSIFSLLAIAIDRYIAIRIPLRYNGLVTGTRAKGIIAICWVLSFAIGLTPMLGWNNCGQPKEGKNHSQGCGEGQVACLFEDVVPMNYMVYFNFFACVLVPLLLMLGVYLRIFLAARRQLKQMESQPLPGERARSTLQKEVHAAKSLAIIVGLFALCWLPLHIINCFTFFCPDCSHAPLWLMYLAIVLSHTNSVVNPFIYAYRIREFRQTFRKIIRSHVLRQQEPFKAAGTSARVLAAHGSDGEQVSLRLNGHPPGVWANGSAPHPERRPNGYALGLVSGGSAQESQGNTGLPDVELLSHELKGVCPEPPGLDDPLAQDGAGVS

A1R = molecular target: T3, A1R (Homo sapiens, UniProt P30542); parameters: method as in Lagarias et al.[19]; settings: 1 nM [3H]CCPA; ref Lagarias et al.[19]; read-out: Radioligand binding Ki A1R; cited from earlier work
T3 construct: expressed in transfected cells
T3 sequence (P30542 1-326): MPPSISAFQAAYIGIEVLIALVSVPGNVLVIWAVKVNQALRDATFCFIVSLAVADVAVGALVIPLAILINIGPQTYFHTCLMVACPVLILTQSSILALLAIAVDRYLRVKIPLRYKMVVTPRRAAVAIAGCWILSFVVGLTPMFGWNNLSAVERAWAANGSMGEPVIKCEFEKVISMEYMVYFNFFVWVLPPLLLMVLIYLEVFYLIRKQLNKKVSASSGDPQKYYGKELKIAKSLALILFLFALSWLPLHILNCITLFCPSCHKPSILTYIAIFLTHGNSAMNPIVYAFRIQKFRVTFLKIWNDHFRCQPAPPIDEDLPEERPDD

rat A3R = molecular target: T4, rat A3R (Rattus norvegicus, UniProt P28647); assay: NanoBRET ligand-binding, Nluc-rat A3R HEK 293 cells, AV039 tracer; settings: for binding at rat A3R: no binding detected below the concentration of 10 μM; for pKi: rat A3R, 100 nM AV039, BRET ratio at 5 minutes, Cheng-Prusoff
T4 sequence (P28647 1-320): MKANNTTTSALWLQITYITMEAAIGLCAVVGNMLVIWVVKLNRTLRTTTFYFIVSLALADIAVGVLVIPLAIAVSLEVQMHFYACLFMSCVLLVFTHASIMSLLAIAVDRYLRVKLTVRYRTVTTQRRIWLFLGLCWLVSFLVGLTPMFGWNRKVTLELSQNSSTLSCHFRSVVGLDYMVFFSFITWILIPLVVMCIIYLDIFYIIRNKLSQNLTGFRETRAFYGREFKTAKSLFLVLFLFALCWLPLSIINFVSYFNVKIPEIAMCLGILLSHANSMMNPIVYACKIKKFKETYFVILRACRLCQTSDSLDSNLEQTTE

A3R [3] = molecular target: T1, A3R; assay: NECA stimulated cAMP inhibition in A3R Flp-In CHO cells; type: cell-based; settings: for Span: difference between Emin and basal; for Emin: lower plateau of NECA curve; for effect on NECA potency / antagonism: 1 μM compound; for effect on NECA potency / antagonism / effect on NECA potency: preliminary data; for Basal: upper plateau of NECA curve; for effect on NECA potency: 10 μM compound
[4] = 1 µM compound + 10 µM forskolin only
[5] = 10 µM compound + 10 µM forskolin only

Row | cAMP accumulation Mean (A3R [2]) [%10 μM forskolin response] | cAMP accumulation Mean difference between 'NECA' and compound (A3R [2]) [%10 μM forskolin response] | SMILES | Ki (A3R [1]) [µM] | Ki (A2AR) [µM] | Ki (A1R) [µM] | also measured
1 | 63.37 ±2.66 | -3.05 | NC(=NOC(=O)c1csnn1)c1ccc(-c2csnn2)cc1 [Compound K3] | > 100 | > 100 | > 100 | –
2 | 68.28 ±2.94 | -7.96 | COc1ccc(CSC(=N)Nc2ccccc2Cl)cc1.Cl [Compound K2] | 16.6 | 61.3 | > 100 | –
3 | 56.25 ±1.44 | 4.07 | COc1ccc(CCNC(=O)c2c(N)sc3c2CCC3)cc1OC [Compound K13] | 16.5 | > 60 | > 30 | –
4 | 64.01 ±5.22 | -3.69 | O=C(Nc1ccc(OC(F)(F)F)cc1)Nc1cc(-c2cccs2)n[nH]1 [Compound K6] | 30.6 | > 100 | > 100 | –
5 | 59.06 ±0.13 | 1.26 | NC(=NNC(=O)Nc1ccc(Cl)cc1)c1ccc(C(F)(F)F)cn1 [Compound K4] | > 100 | > 100 | > 100 | –
6 | – | – | Cc1nc(C(N)=NOC(=O)c2c(-c3ccccc3)noc2C)cs1 [Compound K5] | – | 21.8 | > 100 | –
7 | – | – | Cc1nc(C(N)=NOC(=O)c2c(-c3ccccc3Cl)noc2C)cs1 [Compound K17] | – | > 60 | > 30 | binding at rat A3R (rat A3R): very weak binding; pKi (rat A3R): 4.60 ± 0.09
8 | 51.51 ±4.91 | 8.81 | NNC(=O)c1sc(-c2ccccc2)cc1N [Compound K16] | 19.7 | 31.7 | > 30 | –
9 | 73.54 ±2.98 | -13.22 | COc1cccc(C=NNC(=O)c2cc(-c3ccccc3)sc2N)c1 [Compound K21] | 5.77 | 3.93 | > 100 | True Basal (A3R [3]; [4]): 101.6 ±5.1; Span (A3R [3]; 1 µM compound): 119.4 ±9.4; Emin (A3R [3]; 1 µM compound): 2.0 ±7.6 % 10 µM forskolin response relative to NECA response; effect on NECA potency / antagonism (A3R [3]): no effect; Basal (A3R [3]; 1 µM compound): 121.5 ±6.1 % 10 µM forskolin inhibition, relative to NECA; True Basal (A3R [3]; [5]): 118.6 ±4.8; Span (A3R [3]; 10 µM compound): 104.6 ±7.7; Emin (A3R [3]; 10 µM compound): 30.1 ±6.8 % 10 µM forskolin response relative to NECA response; effect on NECA potency (A3R [3]): reduce the NECA potency; Basal (A3R [3]; 10 µM compound): 134.7 ±4.3 % 10 µM forskolin inhibition, relative to NECA; outcome of cAMP-based screen (A3R [2]): no activity
10 | – | – | Cc1onc(-c2ccccc2Cl)c1C(=O)O/N=C(\N)c1ccncc1 [Compound K11] | – | 30 | > 60 | –
11 | 64.58 ±4.94 | -4.26 | COc1ccccc1N=C(N)SCc1ccccc1 [Compound K19] | > 100 | > 100 | > 100 | –
12 | 61.09 ±3.04 | -0.77 | COc1ccc(CCNC(=O)c2c(N)sc3c2CCCC3)cc1OC [Compound K14] | 14.8 | > 60 | > 30 | –
13 | – | – | Cc1cccc(/C(N)=N/OC(=O)c2c(-c3ccccc3Cl)noc2C)c1 [Compound K15] | – | > 100 | > 100 | –
14 | – | – | Cc1onc(-c2ccccc2Cl)c1C(=O)O/N=C(\N)c1cccnc1 [Compound K10] | – | > 60 | > 60 | binding at rat A3R (rat A3R): very weak binding; pKi (rat A3R): 4.19 ± 0.09
15 | 51.39 ±3.11 | 8.93 | CC(C)(C)c1ccc(/C(N)=N/OC(=O)c2cnn(-c3ccccc3)c2C(F)(F)F)cc1 [Compound K24] | 5.39 | > 100 | 7.48 | True Basal (A3R [3]; [4]): 103.6 ±7.7; Span (A3R [3]; 1 µM compound): 103.7 ±7.9; Emin (A3R [3]; 1 µM compound): 5.9 ±6.5 % 10 µM forskolin response relative to NECA response; effect on NECA potency / antagonism (A3R [3]): no effect; Basal (A3R [3]; 1 µM compound): 109.5 ±4.9 % 10 µM forskolin inhibition, relative to NECA; True Basal (A3R [3]; [5]): 117.7 ±0.9; Span (A3R [3]; 10 µM compound): 107.4 ±5.7; Emin (A3R [3]; 10 µM compound): 23.4 ±4.5 % 10 µM forskolin response relative to NECA response; effect on NECA potency (A3R [3]): reduce the NECA potency; Basal (A3R [3]; 10 µM compound): 130.8 ±3.3 % 10 µM forskolin inhibition, relative to NECA; outcome of cAMP-based screen (A3R [2]): no activity
16 | 71.56 ±3.54 | -11.24 | CCC(C)CC(=O)Nc1ccsc1C(N)=O (stereo not drawn) [Compound K35] | 27.4 | > 30 | 7.33 | –
17 | – | – | COc1ccc(-n2nc3c(NC(=O)CCC(=O)NCCOCCOCCNC(=O)CCCCCNC(=O)COc4ccc(/C=C/C5=[N+]6C(=Cc7ccc(-c8cccs8)n7[B-]6(F)F)C=C5)cc4)nc4ccccc4n3c2=O)cc1 [AV039, reference compound] | – | – | – | Kd (rat A3R; read-out: KD (saturation binding), fluorescent tracer at Nluc-rat A3R): 0.102 ± 0.00759 µM
18 | 70.56 ±3.64 | -10.24 | Nc1sc(-c2ccccc2)cc1C(=O)NN=Cc1ccccc1 [Compound K22] | 5.16 | 4.59 | 15.2 | True Basal (A3R [3]; [4]): 101.9 ±8.4; Span (A3R [3]; 1 µM compound): 120.9 ±8.8; Emin (A3R [3]; 1 µM compound): 0.4 ±7.1 % 10 µM forskolin response relative to NECA response; effect on NECA potency / antagonism (A3R [3]): no effect; Basal (A3R [3]; 1 µM compound): 121.3 ±5.8 % 10 µM forskolin inhibition, relative to NECA; True Basal (A3R [3]; [5]): 124.5 ±8.2; Span (A3R [3]; 10 µM compound): 97.5 ±8.0; Emin (A3R [3]; 10 µM compound): 41.6 ±7.1 % 10 µM forskolin response relative to NECA response; effect on NECA potency (A3R [3]): reduce the NECA potency; Basal (A3R [3]; 10 µM compound): 139.1 ±4.2 % 10 µM forskolin inhibition, relative to NECA; outcome of cAMP-based screen (A3R [2]): no activity
19 | 59.66 ±0.98 | 0.66 | Nc1sccc1C(=O)NCCc1ccccc1 [Compound K12] | 37.1 | > 60 | > 100 | –
20 | – | – | Cc1onc(-c2ccccc2Cl)c1C(=O)O/N=C(\N)c1ccc(I)cc1 [Compound K9] | – | > 100 | 6.91 | –
21 | 64.14 ±1.73 | -3.82 | CCOC(=O)CC(=O)Nc1ccsc1C(N)=O [Compound K28] | > 100 | 30 | 18 | –
